In brackets after ≈: the same amount, converted by molar mass.
Tested on: Pasteurella multocida
Assay: minimum inhibitory concentration (MIC)
Procedure: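 Broth microdilution MIC (Sensititre BOPO7F bovine plate, CLSI methods) of 19 antimicrobials against field isolates of P. multocida, M. haemolytica, H. somni (deep nasopharyngeal swabs) and E. coli, Enterococcus spp. (rectal swabs) from weaned dairy heifers. Incubation 16-24 h at 35 C. MIC is the lowest concentration preventing visible growth. Values with <= or > lie at the tested range limits. Trimethoprim-sulfamethoxazole is given as the trimethoprim component of a 1:19 mixture.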

CC1(C)S[C@@H]2[C@H](NC(=O)[C@H](N)c3ccccc3)C(=O)N2[C@H]1C(=O)O [Ampicillin]
Conditions | minimum inhibitory concentration [µg/mL]
isolate (source animal id): 10 | ≤ 0.25
isolate (source animal id): 11 | ≤ 0.25
isolate (source animal id): 12 | ≤ 0.25
isolate (source animal id): 19 | ≤ 0.25
isolate (source animal id): 23 | ≤ 0.25
isolate (source animal id): 26 | ≤ 0.25
isolate (source animal id): 98 | ≤ 0.25
isolate (source animal id): 104 | ≤ 0.25
isolate (source animal id): 115 | ≤ 0.25
isolate (source animal id): 117 | ≤ 0.25
isolate (source animal id): 118 | ≤ 0.25
isolate (source animal id): 121 | ≤ 0.25
isolate (source animal id): 124 | 0.5 (≈ 1.43 µM)
isolate (source animal id): 125 | ≤ 0.25
isolate (source animal id): 128 | ≤ 0.25
isolate (source animal id): 131 | ≤ 0.25
isolate (source animal id): 135 | ≤ 0.25
isolate (source animal id): 136 | ≤ 0.25
isolate (source animal id): 140 | ≤ 0.25
isolate (source animal id): 144 | ≤ 0.25
isolate (source animal id): 146 | ≤ 0.25
isolate (source animal id): 150 | ≤ 0.25
isolate (source animal id): 151 | ≤ 0.25
isolate (source animal id): 153 | ≤ 0.25
isolate (source animal id): 155 | ≤ 0.25
isolate (source animal id): 157 | ≤ 0.25
isolate (source animal id): 160 | ≤ 0.25
isolate (source animal id): 164 | ≤ 0.25
isolate (source animal id): 165 | ≤ 0.25
isolate (source animal id): 167 | ≤ 0.25
isolate (source animal id): 168 | ≤ 0.25
isolate (source animal id): 169 | ≤ 0.25
isolate (source animal id): 170 | 8 (≈ 22.9 µM)
isolate (source animal id): 171 | ≤ 0.25
isolate (source animal id): 172 | ≤ 0.25
isolate (source animal id): 173 | ≤ 0.25
isolate (source animal id): 174 | ≤ 0.25
isolate (source animal id): 175 | ≤ 0.25
isolate (source animal id): 176 | ≤ 0.25
isolate (source animal id): 177 | ≤ 0.25
isolate (source animal id): 178 | ≤ 0.25
isolate (source animal id): 179 | ≤ 0.25
isolate (source animal id): 182 | ≤ 0.25
isolate (source animal id): 192 | ≤ 0.25
isolate (source animal id): 193 | ≤ 0.25
isolate (source animal id): 195 | ≤ 0.25
isolate (source animal id): 196 | ≤ 0.25
isolate (source animal id): 197 | ≤ 0.25
isolate (source animal id): 198 | ≤ 0.25
isolate (source animal id): 199 | ≤ 0.25
isolate (source animal id): 200 | ≤ 0.25
isolate (source animal id): 201 | ≤ 0.25
isolate (source animal id): 203 | ≤ 0.25
isolate (source animal id): 204 | ≤ 0.25
isolate (source animal id): 205 | ≤ 0.25
isolate (source animal id): 206 | ≤ 0.25
isolate (source animal id): 207 | ≤ 0.25
isolate (source animal id): 208 | ≤ 0.25
isolate (source animal id): 209 | ≤ 0.25
isolate (source animal id): 210 | ≤ 0.25
isolate (source animal id): 213 | ≤ 0.25
isolate (source animal id): 216 | ≤ 0.25
isolate (source animal id): 223 | ≤ 0.25
isolate (source animal id): 227 | ≤ 0.25
isolate (source animal id): 229 | ≤ 0.25
isolate (source animal id): 233 | ≤ 0.25
isolate (source animal id): 234 | ≤ 0.25
isolate (source animal id): 237 | ≤ 0.25
isolate (source animal id): 241 | ≤ 0.25
isolate (source animal id): 245 | ≤ 0.25
isolate (source animal id): 247 | ≤ 0.25
isolate (source animal id): 250 | ≤ 0.25
isolate (source animal id): 254 | ≤ 0.25
isolate (source animal id): 255 | ≤ 0.25
isolate (source animal id): 258 | ≤ 0.25
isolate (source animal id): 261 | ≤ 0.25
isolate (source animal id): 262 | ≤ 0.25
isolate (source animal id): 269 | ≤ 0.25
isolate (source animal id): 270 | ≤ 0.25
isolate (source animal id): 274 | ≤ 0.25
isolate (source animal id): 275 | ≤ 0.25
isolate (source animal id): 276 | ≤ 0.25
isolate (source animal id): 277 | ≤ 0.25
isolate (source animal id): 278 | ≤ 0.25
isolate (source animal id): 279 | ≤ 0.25
isolate (source animal id): 280 | ≤ 0.25
isolate (source animal id): 284 | ≤ 0.25
isolate (source animal id): 285 | ≤ 0.25
isolate (source animal id): 287 | ≤ 0.25
isolate (source animal id): 290 | ≤ 0.25
isolate (source animal id): 294 | ≤ 0.25
isolate (source animal id): 295 | ≤ 0.25
isolate (source animal id): 296 | ≤ 0.25
isolate (source animal id): 307 | ≤ 0.25
isolate (source animal id): 310 | ≤ 0.25
isolate (source animal id): 311 | ≤ 0.25
isolate (source animal id): 312 | ≤ 0.25
isolate (source animal id): 313 | ≤ 0.25
isolate (source animal id): 315 | ≤ 0.25
isolate (source animal id): 316 | ≤ 0.25
